According to patent US20080107623A1, “Inhibitors of Hepatitis C Virus” (Bristol-Myers Squibb Company, priority 2006, published 2008):

Key:
[1] = tested on: HCV replicon in HUH-7 cells; experiment: HCV replicon FRET assay; type: cell-based, HCV strain 1b; conditions: Hepatitis C virus, Huh-7; HCV replicon; which replicon assay not stated; read-out: EC50 Activity Range
Text: An HCV replicon whole cell system was established as described by Lohmann V, Korner F, Koch J, Herian U, Theilmann L, Bartenschlager R., Science 285(5424):110-3 (1999). This system enabled us to evaluate the effects of our HCV Protease compounds on HCV RNA replication. Briefly, using the HCV strain 1b sequence described in the Lohmann paper (Assession number: AJ238799), an HCV cDNA was synthesized by Operon Technologies, Inc. (Alameda, Calif.), and the full-length replicon was then assembled in plasmid pGem9zf(+) (Promega, Madison, Wis.) using standard molecular biology techniques. The replicon consists of (i) the HCV 5′ UTR fused to the first 12 amino acids of the capsid protein, (ii) the neomycin phosphotransferase gene (neo), (iii) the IRES from encephalomyocarditis virus (EMCV), and (iv) HCV NS3 to NS5B genes and the HCV 3′ UTR. Plasmid DNAs were linearized with ScaI and RNA transcripts were synthesized in vitro using the T7 MegaScript transcription kit (Ambion, Austin, Tex.) according to manufacturer's directions. In vitro transcripts of the cDNA were transfected into the human hepatoma cell line, HUH-7. […] Resulting cell lines were characterized for positive and negative strand RNA production and protein production over time.
The HCV replicon FRET assay was developed to monitor the inhibitory effects of compounds described in the disclosure on HCV viral replication. HUH-7 cells, constitutively expressing the HCV replicon, were grown in Dulbecco's Modified Eagle Media (DMEM) (Gibco-BRL) containing 10% Fetal calf serum (FCS) (Sigma) and 1 mg/ml G418 (Gibco-BRL). Cells were seeded the night before (1.5×10^4 cells/well) in 96-well tissue-culture sterile plates. Compound and no compound controls were prepared in DMEM containing 4% FCS, 1:100 Penicillin/Streptomysin (Gibco-BRL), 1:100 L-glutamine and 5% DMSO in the dilution plate (0.5% DMSO final concentration in the assay). Compound/DMSO mixes were added to the cells and incubated for 4 days at 37° C. After 4 days, cells were first assessed for cytotoxicity using alamar Blue (Trek Diagnotstic Systems) for a CC50 reading. The toxicity of compound (CC50) was determined by adding 1/10th volume of alamar Blue to the media incubating the cells. After 4 hours, the fluorescence signal from each well was read, with an excitation wavelength at 530 nm and an emission wavelength of 580 nm, using the Cytofluor Series 4000 (Perspective Biosystems). Plates were then rinsed thoroughly with Phosphate-Buffered Saline (PBS) (3 times 150 μl). The cells were lysed with 25 μl of a lysis assay reagent containing an HCV protease substrate (5× cell Luciferase cell culture lysis reagent (Promega #E153A) diluted to 1× with distilled water, NaCl added to 150 mM final, the FRET peptide substrate (as described for the enzyme assay above) diluted to 10 μM final from a 2 mM stock in 100% DMSO. […]. The plate was then placed into the Cytofluor 4000 instrument which had been set to 340 nm excitation/490 nm emission, automatic mode for 21 cycles and the plate read in a kinetic mode. EC50 determinations were carried out as described for the IC50 determinations.

[2] = target: T1, HCV NS3/4A protease complex, BMS strain (UniProt P27958, species not given/STRAIN_BMS); experiment: FRET peptide assay to monitor HCV NS3/4A proteolytic activity (BMS strain); type: biochemical, HCV genotype 1a; conditions: NS3/4A BMS strain; read-out: IC50 Activity Range
T1 construct: said of H77 and J4L6S, not expressly of BMS; These are given for the H77 and J4L6S constructs only
Text: HCV NS3 protease complexes, derived from the BMS strain, H77 strain or J4L6S strain, were generated, as described below. These purified recombinant proteins were generated for use in a homogeneous assay (see below) to provide an indication of how effective compounds of the present disclosure would be in inhibiting HCV NS3 proteolytic activity.
Serum from an HCV-infected patient was obtained from Dr. T. Wright, San Francisco Hospital. An engineered full-length cDNA (compliment deoxyribonucleic acid) template of the HCV genome (BMS strain) was constructed from DNA fragments obtained by reverse transcription-PCR (RT-PCR) of serum RNA (ribonucleic acid) and using primers selected on the basis of homology between other genotype 1a strains. From the determination of the entire genome sequence, a genotype 1a was assigned to the HCV isolate according to the classification of Simmonds et al. (See P Simmonds, K A Rose, S Graham, S W Chan, F McOmish, B C Dow, E A Follett, P L Yap and H Marsden, J. Clin. Microbiol., 31(6), 1493-1503 (1993)). […] The infectious clones, H77 (1a genotype) and J4L6S (1b genotype) were obtained from R. Purcell (NIH) and the sequences are published in Genbank (AAB67036, see Yanagi, M., Purcell, R. H., Emerson, S. U. and Bukh, J. Proc. Natl. Acad. Sci. U.S.A. 94(16),8738-8743 (1997); AF054247, see Yanagi, M., St Claire, M., Shapiro, M., Emerson, S. U., Purcell, R. H. and Bukh, J, Virology 244 (1), 161-172. (1998)).
NS3/4A protease complex-containing fractions were pooled and loaded on a desalting column Superdex-S200 pre-equilibrated with buffer D (25 mM HEPES, pH 7.5, 20% glycerol, 300 mM NaCl, 0.2% Triton X-100, 10 mM βME). Sample was loaded at a flow rate of 1 mL/min. NS3/4A protease complex-containing fractions were pooled and concentrated to approximately 0.5 mg/ml. The purity of the NS3/4A protease complexes, derived from the BMS, H77 and J4L6S strains, were judged to be greater than 90% by SDS-PAGE and mass spectrometry analyses. The enzyme was stored at −80° C., thawed on ice and diluted prior to use in assay buffer.
The purpose of this in vitro assay was to measure the inhibition of HCV NS3 protease complexes, derived from the BMS strain, H77 strain or J4L6S strain, as described above, by compounds of the present disclosure. This assay provides an indication of how effective compounds of the present disclosure would be in inhibiting HCV NS3 proteolytic activity.
In order to monitor HCV NS3/4A protease activity, an NS3/4A peptide substrate was used. The substrate was RET SI (Resonance Energy Transfer Depsipeptide Substrate; AnaSpec, Inc. cat #22991) (FRET peptide), described by Taliani et al. in Anal. Biochem. 240(2):60-67 (1996). […] The peptide also contains a fluorescence donor, EDANS, near one end of the peptide and an acceptor, DABCYL, near the other end. The fluorescence of the peptide is quenched by […] resonance energy transfer (RET) between the donor and the acceptor, but as the NS3 protease cleaves the peptide the products are released from RET quenching and the fluorescence of the donor becomes apparent.
The peptide substrate was incubated with one of the three recombinant NS3/4A protease complexes, in the absence or presence of a compound of the present disclosure. The inhibitory effects of a compound was determined by monitoring the formation of fluorescent reaction product in real time using a Cytofluor Series 4000. […]

T1 sequence (P27958 1027-1657, change not shown, one chain of several): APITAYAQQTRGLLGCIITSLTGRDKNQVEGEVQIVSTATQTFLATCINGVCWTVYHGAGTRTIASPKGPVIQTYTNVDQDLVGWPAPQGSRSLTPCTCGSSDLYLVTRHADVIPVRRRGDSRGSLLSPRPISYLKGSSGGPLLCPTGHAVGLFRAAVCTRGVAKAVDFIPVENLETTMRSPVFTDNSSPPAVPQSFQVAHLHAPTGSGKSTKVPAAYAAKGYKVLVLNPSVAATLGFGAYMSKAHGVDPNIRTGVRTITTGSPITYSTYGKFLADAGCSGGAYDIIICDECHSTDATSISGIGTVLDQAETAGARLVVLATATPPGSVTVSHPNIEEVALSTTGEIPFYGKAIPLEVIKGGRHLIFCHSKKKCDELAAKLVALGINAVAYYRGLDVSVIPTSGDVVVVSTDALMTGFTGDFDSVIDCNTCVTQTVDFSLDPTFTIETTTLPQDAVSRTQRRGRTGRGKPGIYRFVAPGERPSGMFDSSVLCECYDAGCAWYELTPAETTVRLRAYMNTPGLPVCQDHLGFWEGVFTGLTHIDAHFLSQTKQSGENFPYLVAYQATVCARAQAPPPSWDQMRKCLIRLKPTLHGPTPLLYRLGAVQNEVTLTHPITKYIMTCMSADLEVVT

Row | SMILES | EC50 [1] [nM] | IC50 [2] [nM] | melting point [°C]
1 | CC(C)(C)OC(=O)N[C@H]1CCCOC/C=C\[C@@H]2C[C@@]2(C(=O)NS(=O)(=O)C2CC2)NC(=O)[C@@H]2C[C@@H](OC(C)(C)C)CN2C1=O [Compound 6, (1S,4R,6S,14S,18R,7-cis)-18-tert-butoxy-14-tert-butoxycarbonylamino-4-cyclopropanesulfonylaminocarbonyl-2,15-dioxo-3,16-diaza-10-oxatricyclo[14.3.0.0^4,6]nonadec-7-ene] | > 1000 | 100 to 1000 | 
2 | CC(C)(C)OC(=O)N[C@H]1CCCCC/C=C\[C@@H]2C[C@@]2(C(=O)NS(=O)(=O)C2CC2)NC(=O)[C@@H]2C[C@@H](Oc3ccccn3)CN2C1=O [Compound 1] | 100 to 1000 | < 100 | 
3 | CC(C)(C)OC(=O)N[C@H]1CCCCC/C=C\[C@@H]2C[C@@]2(C(=O)NS(=O)(=O)C2CC2)NC(=O)[C@@H]2C[C@@H](Oc3ccc([N+](=O)[O-])cc3)CN2C1=O [Compound 2] | > 1000 | < 100 | 
4 | CC(C)(C)OC(=O)N[C@H]1CCCOC/C=C\[C@@H]2C[C@@]2(C(=O)NS(=O)(=O)C2CC2)NC(=O)[C@@H]2C[C@@H](OCc3ccccc3)CN2C1=O [Compound 5, (1S,4R,6S,14S,18R,7-cis)-18-benzyloxy-14-tert-butoxycarbonylamino-4-cyclopropanesulfonylaminocarbonyl-2,15-dioxo-3,16-diaza-10-oxatricyclo[14.3.0.0^4,6]nonadec-7-ene] | > 1000 | < 100 | 147 to 149
